Measured values as given in patent US5622962A, “5α-reductase inhibitors” (priority 1995, dated 1997).
Like-named read-outs stand apart in the source and are kept apart here.

Key:
[1] = target: T1, Type I 5α-Reductase from Human Scalp (Homo sapiens, UniProt P18405); experiment: Human Type I 5α-reductase assay (conversion of [3H]-testosterone to 5α-reduced metabolites); assay type: biochemical; settings: for percent inhibition of Type I AR: 0.3 μM
T1 construct: Scalp punch biopsies from graft recipient sites were obtained from human hair transplant procedures; from tissue; host or cells: human scalp punch biopsies (hair transplant graft recipient sites), homogenate, 100,000×g pellet
T1 sequence (P18405 1-259): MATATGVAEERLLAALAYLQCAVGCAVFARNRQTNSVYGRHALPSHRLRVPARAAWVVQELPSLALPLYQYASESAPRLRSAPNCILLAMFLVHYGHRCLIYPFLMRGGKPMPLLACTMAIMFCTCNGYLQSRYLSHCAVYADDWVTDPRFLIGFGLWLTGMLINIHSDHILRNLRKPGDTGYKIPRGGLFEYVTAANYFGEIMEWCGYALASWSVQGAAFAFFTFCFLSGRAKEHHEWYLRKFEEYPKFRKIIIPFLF

[2] = target: T2, Type II 5α-Reductase from Human Prostate (Homo sapiens, UniProt P31213); experiment: Human Type II 5α-reductase assay (conversion of [3H]-testosterone to 5α-reduced metabolites); assay type: biochemical
T2 construct: The same procedure as above was used for preparations using tissue from prostate surgery; from tissue; host or cells: human prostate tissue from surgery, homogenate, 100,000×g pellet
T2 sequence (P31213 1-254): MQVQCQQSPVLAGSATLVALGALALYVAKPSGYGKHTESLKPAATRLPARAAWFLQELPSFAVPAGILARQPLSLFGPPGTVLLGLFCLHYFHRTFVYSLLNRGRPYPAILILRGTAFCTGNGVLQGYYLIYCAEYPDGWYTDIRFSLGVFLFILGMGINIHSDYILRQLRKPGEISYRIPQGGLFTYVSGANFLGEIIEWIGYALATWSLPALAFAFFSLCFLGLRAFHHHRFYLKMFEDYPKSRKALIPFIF

[3] = pH 7.5, 0.3 μM, 50 nM [3H]-testosterone, pH 7.5, 25°, 180 min, compared to control reaction mixtures, read-out: percent inhibition of Type I AR
[4] = pH 5.5, 0.3 μM, sodium acetate pH 5.5, 25°, 30 min, compared to control reaction mixtures, read-out: percent inhibition of Type II AR
[5] = pH 7.5, read-out: percent inhibition of Type I AR
[6] = pH 5.5, read-out: percent inhibition of Type II AR
[7] = 50 nM [3H]-testosterone, pH 7.5, 25°, 180 min, compared to control reaction mixtures

Row | Compound | inhibition at 0.3 µM [1, 3] [%] | inhibition at 0.3 µM [2, 4] [%] | also measured
1 | CN1C(=O)CC[C@]2(C)c3ccc(-c4nc5c(Cl)cccc5s4)cc3CC[C@@H]12 [Example 262, (+)-(4aR)-(10bR)-4-methyl-8-(2-[4-chloro]benzothiazolyl)-10b-methyl-1,2,3,4,4a,5,6,10b-octahydrobenzo[f]quinolin-3-one] | 91 | 41 | 
2 | CN1C(=O)CC[C@]2(C)c3ccc(-c4nc5cc(Cl)c(Cl)cc5s4)cc3CC[C@@H]12 [Example 263, (+)-(4aR)-(10bR)-4-methyl-8-(2-[5,6-dichloro]benzothiazolyl)-10b-methyl-1,2,3,4,4a,5,6,10b-octahydrobenzo[f]quinolin-3-one] | 56 | 47 | 
3 | CC(C)c1cccc2sc(-c3ccc4c(c3)CC[C@H]3N(C)C(=O)CC[C@]43C)nc12 [Example 264, (+)-(4aR)-(10bR)-4-methyl-8-(2-[4-isopropyl]benzothiazolyl)-10b-methyl-1,2,3,4,4a,5,6,10b-octahydrobenzo[f]quinolin-3-one] | 90 | 45 | 
4 | CN1C(=O)CC[C@]2(C)c3ccc(-c4nc5ccc(Cl)cc5s4)cc3CC[C@@H]12 [Example 265, (+)-(4aR)-(10bR)-4-methyl-8-(2-[6-chloro]benzothiazolyl)-10b-methyl-1,2,3,4,4a,5,6,10b-octahydrobenzo[f]quinolin-3-one] | 78 | 40 | 
5 | CN1C(=O)CC[C@]2(C)c3ccc(Oc4ccc5ccccc5n4)cc3CC[C@@H]12 [Example 266, (+)-(4aR)-(10bR)-4-methyl-8-(2-quinolinyloxy)-10b-methyl-1,2,3,4,4a,5,6,10b-octahydrobenzo[f]quinolin-3-one] | 57 | 44 | 
6 | CN1C(=O)CC[C@]2(C)c3ccc(NC(=O)c4ccccc4)cc3CC[C@@H]12 [Example 267, (+)-(4aR)-(10bR)-4,10b-dimethyl-8-benzoylamino-1,2,3,4,4a,-5,6,10b-octahydrobenzo[f]quinolin-3-one] | 34 | 51 | 
7 | CN1C(=O)CC[C@]2(C)c3ccc(NC(=O)c4ccc([N+](=O)[O-])cc4)cc3CC[C@@H]12 [Example 269, (4aR)-(10bR)-4,10b-dimethyl-8-(4-nitrobenzoylamino)-1,2,3,4,4a,5,6,10b-octahydrobenzo[f]quinolin-3-one] | 8 | 17 | 
8 | CN1C(=O)CC[C@]2(C)c3ccc(NC(=O)c4cccc(N)c4)cc3CC[C@@H]12 [Example 270, (4aR)-(10bR)-4,10b-dimethyl-8-(3-aminobenzoylamino)-1,2,3,4,4a,5,6,10b-octahydrobenzo[f]quinolin-3-one] | 18 | 13 | 
9 | CN1C(=O)CC[C@]2(C)c3ccc(-c4cccc(NC(c5ccccc5)c5ccccc5)c4)cc3CC[C@@H]12 [Example 272, (+)-(4aR)-(10bR)-4-methyl-8-(3-diphenylmethylaminophenyl)-10b-methyl-1,2,3,4,4a,5,6,10b-octahydrobenzo[f]quinolin-3-one] | 86 | 11 | 
10 | CN1C(=O)CC[C@]2(C)c3ccc(-c4cccc(NC(=O)C(C)(C)C)c4)cc3CC[C@@H]12 [Example 274, (+)-(4aR)-(10bR)-4-methyl-8-(3-[pivaloylamino]phenyl)-10b-methyl-1,2,3,4,4a,5,6,10b-octahydrobenzo[f]quinolin-3-one] | 34 | 32 | 
11 | CN1C(=O)CC[C@]2(C)c3ccc(CCCc4ccccc4)cc3CC[C@@H]12 [Example 275, (+)-(4aR)-(10bR)-4-methyl-8-(3-phenylpropyl)-10b-methyl-1,2,3,4,4a,5,6,10b-octahydrobenzo[f]quinolin-3-one] | 75 | 44 | 
12 | CN1C(=O)CC[C@]2(C)c3ccc(CCc4ccc5ccccc5c4)cc3CC[C@@H]12 [Example 276, (+)-(4aR)-(10bR)-4-methyl-8-(2-[2-naphthyl]ethyl)-10b-methyl-1,2,3,4,4a,5,6,10b-octahydrobenzo[f]quinolin-3-one] | 92 | 33 | 
13 | CN1C(=O)CC[C@]2(C)c3ccc(CC(=O)Nc4ccccc4)cc3CC[C@@H]12 [Example 277, (4aR)-(10bR)-4,10b-dimethyl-8-phenylaminocarbonylmethyl-1,2,3,4,4a,5,6,10b-octahydrobenzo[f]quinolin-3-one] | 42 | 40 | 
14 | CN1C(=O)CC[C@]2(C)c3ccc(/C=C/c4ccccc4)cc3CC[C@@H]12 [Example 279, (4aR)-(10bR)-4,10b-dimethyl-8-(2-phenylethenyl)-1,2,3,4,4a,5,6,10b-octahydrobenzo[f]quinolin-3-one] |  |  | inhibition at 0.3 µM [1, 5]: 85%; inhibition at 0.3 µM [2, 6]: 60%
15 | CN1C(=O)CC[C@]2(C)c3ccc(CCc4ccccc4)cc3CC[C@@H]12 [Example 280, (4aR)-(10bR)-4,10b-dimethyl-8-(2-phenylethyl)-1,2,3,4,4a,5,6,10b-octahydrobenzo[f]quinolin-3-one] | 97 | 33 | percent inhibition of Type I AR [1, 7]: 100%
16 | CN1C(=O)CC[C@]2(C)c3ccc(C#Cc4ccccc4)cc3CC[C@@H]12 [Example 284, (4aR)-(10bR)-4,10b-dimethyl-8-(2-phenylethynyl)-1,2,3,4,4a,5,6,10b-octahydrobenzo[f]quinolin-3-one] |  |  | inhibition at 0.3 µM [1, 5]: 86%; inhibition at 0.3 µM [2, 6]: 63%
17 | CN1C(=O)CC[C@]2(C)c3ccc(/C=C\c4ccccc4)cc3CC[C@@H]12 [Example 285, (4aR)-(10bR)-4,10b-dimethyl-8-(2-phenylethenyl)-1,2,3,4,4a,5,6,10b-octahydrobenzo[f]quinolin-3-one] |  |  | inhibition at 0.3 µM [1, 5]: 93%; inhibition at 0.3 µM [2, 6]: 36%
18 | CN1C(=O)CC[C@]2(C)c3ccc(C(=O)c4ccccc4)cc3CC[C@@H]12 [Example 286, (4aR)-(10bR)-8-benzoyl-4,10b-dimethyl-1,2,3,4,4a,5,6,10b-octahydrobenzo[f]quinolin-3-one] | 53 | 38 | 
19 | CN1C(=O)CC[C@]2(C)c3ccc(Cc4ccccc4)cc3CC[C@@H]12 [Example 287, (4aR)-(10bR)-8-benzyl-4,10b-dimethyl-1,2,3,4,4a, 5,6, 10b-octahydrobenzo[f]quinolin-3-one] | 82 | 37 | 
20 | CN1C(=O)CC[C@]2(C)c3ccc(C(=O)c4ccccc4Cl)cc3CC[C@@H]12 [Example 288, (4aR)-(10bR)-8-(2-chlorobenzoyl)-4,10b-dimethyl-1,2,3,4,4a,5,6,10b-octahydrobenzo[f]quinolin-3-one] | 19 | 12 | 
21 | C[C@]12CCC(=O)N[C@@H]1CCc1cc(CSc3ccccc3)ccc12 [Example 289, (4aR)-(10bR)-8-phenylthiomethyl-10b-methyl-1,2,3,4,4a,5,6,10b-octahydrobenzo[f]quinolin-3-one] | 23 | 24 | 
22 | C[C@]12CCC(=O)N[C@@H]1CCc1cc(CSc3nc4ccccc4s3)ccc12 [Example 290, (4aR)-(10bR)-8-(2-benzothiazolyl)thiomethyl-10b-methyl-1,2,3,4,4a,5,6,10b-octahydrobenzo[f]quinolin-3-one] | 25 | 8 | 
23 | CN1C(=O)CC[C@]2(C)c3ccc(-c4cccc(CNC(c5ccccc5)c5ccccc5)c4)cc3CC[C@@H]12 [Example 292, (+)-(4aR)-(10bR)-4-methyl-8-(3-diphenylmethylaminomethylphenyl)-10b-methyl-1,2,3,4,4a,5,6,10b-octahydrobenzo[f]quinolin-3-one] | 86 | 11 | 
24 | (+)-(4aR)-(10bR)-8-(3-isoquinolinyl)-10b-methyl-3,4,4a,5,6,10b-hexahydrobenzo[f]quinolin-3-one [Example 142] |  |  | percent inhibition of Type I AR [1, 7]: 22%; percent inhibition of Type II AR ([2]; 0.3 μM, sodium acetate pH 5.5, 25°, 30 min, compared to control reaction mixtures): 40%
